Data published in patent US9155795B2, “CXCR4 receptor compounds” (Anchor Therapeutics, Inc., priority 2010, dated 2015).
Read-outs that look alike come from different tables or passages of the source. One block for each compound: values may come before it. Where a SMILES comes first, the peptide text is derived from it. Where no end group is shown, it is not given here. [ ]: non-standard residue; d: D form. The star is where a group is joined. Hexadecanesulfonyl = CCCCCCCCCCCCCCCCS(=O)(=O)*; Palmitoyl = CCCCCCCCCCCCCCCC(=O)*

How the values were obtained:
CXCR4 [1] = target: T1, CXCR4 (Homo sapiens, UniProt P61073); test: CXCR4 chemotaxis assay (Transwell, CCRF-CEM cells); assay type: cell-based; conditions: DMSO vehicle
T1 construct: CCRF-CEM cells, a human T-cell ALL line that endogenously expresses CXCR4; endogenous in cells; host or cells: CCRF-CEM (human T-cell acute lymphoblastic leukemia line)
T1 sequence (P61073 whole entry): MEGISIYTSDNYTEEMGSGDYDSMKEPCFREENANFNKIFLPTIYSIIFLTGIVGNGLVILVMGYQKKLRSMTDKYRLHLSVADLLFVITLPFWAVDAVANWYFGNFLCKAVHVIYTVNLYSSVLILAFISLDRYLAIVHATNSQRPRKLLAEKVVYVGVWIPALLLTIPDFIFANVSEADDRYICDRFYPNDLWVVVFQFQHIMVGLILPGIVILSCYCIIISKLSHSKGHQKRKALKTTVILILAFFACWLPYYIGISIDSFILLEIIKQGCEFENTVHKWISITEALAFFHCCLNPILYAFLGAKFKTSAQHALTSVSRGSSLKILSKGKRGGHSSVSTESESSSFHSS
Description: Chemotaxis assays are utilized to determine the effect of compound on the directed migration of cells in response to chemokine. In general, cells that express a receptor of interest are placed in the upper chamber of a Transwell chemotaxis plate (Corning) and allowed to migrate through a polycarbonate membrane to a lower chamber containing the appropriate receptor-specific ligand. To test for antagonist or potentiating activity, cells are mixed with the desired concentration of compound prior to addition to the upper chamber. Conversely, agonist activity is determined by adding compound in the bottom chamber only without endogenous chemokine. The effect of compound is quantified by several parameters, including the extent of maximum response, the shift of agonist dose-response curves, and the area under the curve.
To measure the CXCR4 test compound elicited CXCR4-dependent migration of cells, the appropriate concentration of control agonist CXCL12 or test compound is diluted in phenol red-free RMPI-1640/20 mM HEPES/0.5% BSA buffer and placed in the bottom chamber of a transwell apparatus. CCRF-CEM cells, a human T-cell ALL line that endogenously expresses CXCR4, are washed twice in buffer and resuspended at 133,000 cells/ml. A 75 μl sample of the cell suspension is mixed with the test compound of interest and placed in the upper chamber of a 5-micron transwell apparatus.
To measure the effect of test compound on CXCL12 elicited CXCR4-dependent migration of cells, the appropriate concentration of CXCL12 is diluted in phenol red-free RMPI-1640/20 mM HEPES/0.5% BSA buffer and placed in the bottom chamber of a transwell apparatus. CCRF-CEM cells, a human T-cell ALL line that endogenously expresses CXCR4, are washed twice in buffer and resuspended at 133,000 cells/ml. A 75 μl sample of this suspension is mixed with the test compound of interest and placed in the upper chamber of a 5-micron transwell apparatus.
To initiate cell migration, the assembled transwell plate is placed in a 37° C., […] incubator for a specified time interval, typically between 30 and 120 minutes. After incubation, the unit is disassembled and the lower chamber placed at −80° C. overnight to facilitate lysis of cells. To quantify migrated cells, plates are thawed at 37° C. in a humidified chamber, and then a sample volume is removed from each well and mixed with an equal volume of CyQuant (Invitrogen) working solution in opaque plates. The fluorescence intensity of each well represents the DNA content and is directly proportional to cell number. Each sample is typically run in duplicate or triplicate and each plate include two separate negative controls. The plate background control, which includes no cells in the upper chamber, is subtracted from all values. […]

[2] = Pharmacokinetic analysis in mice (plasma, LC/MS); assay type: in vivo; conditions: for bioavailability / half-life / MRT inf / Tmax: male, mouse, in vivo, 2.5 umol/kg; for half-life / MRT inf / Tmax: sc
Description: To determine the pharmacokinetic profile of the CXCR4 modulators, compounds were administered as single subcutaneous injection to 6-8 week old male mice at doses of either […] (three or four mice/group). […] Dosing of 0.5 μmol/kg or 1 μmol/kg were used for intravenous dosing. […] Mice were sacrificed and blood samples collected at 15 minutes, 30 minutes, 1 hour, 2 hours, 4 hours, 8 hours, and 24 hours after dosing. The concentration of compound in plasma samples was analyzed by LC/MS according to the method below.
To this, 5 μL of the analyte compound in AcN:H2O:FA (70:30:1%) of 100 μM concentration was added to get 5 μM concentration.
Serial calibration standards in plasma or plasma samples were transferred to clean labeled tubes and mixed with 3 volumes of acetonitrile with internal standard, tolbutamide, in order to precipitate proteins. The mixtures were vortexed and centrifuged at 12000 RPM (15320 g) for 10 minutes. Supernatants were transferred to HPLC injection vials or 96-well plates and 5 μL were injected into the LC-MS/MS system.
Noncompartmental pharmacokinetic analyses were performed using WinNonlin Professional (version 5.2) software (Pharsight, Cary, N.C.). The data were analyzed using the extravascular input model. For each subject, pharmacokinetic parameters were calculated individually as follows and then averaged. The maximum drug concentration in plasma, Cmax, and Tmax, the time to achieve Cmax, were calculated directly from the concentration-time curves. The area under the plasma concentration-time curve from hour 0 to the last measurable concentration in plasma, AUClast, was estimated by the linear trapezoidal rule. The area under the plasma concentration-time curve from hour 0 to infinity estimated using the following formula: AUCinf—obs=AUClast+Ct/Lambda_z, where Ct is the last measurable concentration in plasma, and Lambda_z is the terminal elimination rate constant estimated using log-linear regression during the terminal elimination phase. The number of points used in Lambda_z calculation was determined by visual inspection of the data describing the terminal phase and evaluation of the correlation coefficient associated with the regression line. T1/2, the terminal elimination half-life=ln(2)/Lambda_z. Mean residence time MRT, was calculated as following: MRT=(AUMCinf/AUCinf). Subcutaneous absorption bioavailability was calculated as the AUCinf following subcutaneous dosing divided by the AUCinf following intravenous dosing. Results were expressed as percentages.

CXCR4 [3] = target: T1, CXCR4; test: Calcium flux assay, agonist mode, Flexstation (CCRF-CEM cells); assay type: cell-based; conditions: CCRF-CEM, percent of maximum response compared with SDF-1α, read-out: % Intrinsic Activity
male BALB/c mice = test: Mobilization of polymorphonuclear leukocytes (PMNs) in mice; assay type: in vivo; conditions: for Lymphocytes (×10^3 μl) Mean ± SD / PMNs (×10^3 μl) Mean ± SD: blood 3 hours after injection
Description: The effect of Compound 26 on mobilization of PMNs following subcutaneous administration was evaluated in mice. […] Louis, Mo.) was administered subcutaneously to 10 mice. […] Neutrophil and lymphocyte counts were determined using a Hemavet Model 950FS cell counter (Drew Scientific, Dallas, Tex.).

CXCR4 [4] = target: T1, CXCR4; test: Calcium flux assay, agonist mode, FLIPR (CCRF-CEM cells); assay type: cell-based; conditions: percent of maximum response compared with SDF-1α, read-out: % Intrinsic Activity
Description: The calcium flux assay was used to assess the test compounds' ability to activate the CXCR4 receptor in CCRF-CEM cells (human T lymphoblasts from acute lymphoblastic leukemia). […] After dye loading by incubating with Calcium-4 dye at 37° C. for 1 hour, cell plates were read at 37° C. using the Fluorescent Imaging Plate Reader (FLIPR). Receptor activation was assessed by measuring changes in fluorescent intensity after the addition of the test compounds or the reference agonist SDF-1α on the FLIPR.

Compound: 43: i3 loop peptide SKLSHSKGHQKRKALKTTVIL (SEQ ID NO: 39), lipid Pal (also: lipid Pal attached, position not given here) [Compound 43]
- AUC (% of Vehicle) (CXCR4 [1]): 226.59 % of Vehicle
- Max (% of Vehicle) (CXCR4 [1]): 202.16 % of Vehicle

Compound: 44: i4 loop peptide GAKFKTSAQHALTSVR (SEQ ID NO: 40), lipid Pal (also: lipid Pal attached, position not given here) [Compound 44]
- AUC (% of Vehicle) (CXCR4 [1]): 56.75 % of Vehicle
- Max (% of Vehicle) (CXCR4 [1]): 56.7 % of Vehicle

Compound: CCCCCCCCCCCCCCCC(=O)NCC(=O)NCC(=O)N[C@@H](Cc1ccc(O)cc1)C(=O)N[C@@H](CCC(N)=O)C(=O)N[C@@H](CCCCN)C(=O)N[C@@H](CCCCN)C(=O)N[C@@H](CC(C)C)C(=O)N[C@@H](CCCNC(=N)N)C(=O)N1CCC[C@@H]1C(=O)N[C@@H](Cc1c[nH]cn1)C(=O)N[C@H](C(=O)N[C@@H](CC(=O)O)C(=O)N[C@@H](CCCCN)C(=O)N[C@@H](Cc1ccc(O)cc1)C(=O)N[C@@H](CCCNC(=N)N)C(=O)N[C@@H](CC(C)C)C(N)=O)[C@@H](C)O [Compound 26] (Palmitoyl-GGYQKKLR[dP]HTDKYRL-NH2; C-terminus assumed)
- bioavailability ([2]; mice, subcutaneous 2.5 μmol/kg, AUCinf subcutaneous divided by AUCinf intravenous, read-out: Bioavailability (%)): 88%
- half-life ([2]; mice, single subcutaneous injection, 2.5 μmol/kg, read-out: Half-life elimination (converted)): 2.4 h
- MRT inf ([2]; mice, single subcutaneous injection, 2.5 μmol/kg, read-out: MRT INFobs): 4.5 h
- Tmax ([2]; mice, single subcutaneous injection, 2.5 μmol/kg, read-out: Tmax): 2 h
- bioavailability following subcutaneous administration (comparison in words) ([2]; mice, subcutaneous): greater than that of compound 48
- Emax (CXCR4 [3]): 91.2%
- Lymphocytes (×10^3 μl) Mean ± SD (male BALB/c mice; 0.2 μmol/kg subcutaneous): 4.39 ± 1.33 ×10^3 μl
- PMNs (×10^3 μl) Mean ± SD (male BALB/c mice; 0.2 μmol/kg subcutaneous): 3.60 ± 1.89 ×10^3 μl
- Lymphocytes (×10^3 μl) Mean ± SD (male BALB/c mice; 0.66 μmol/kg subcutaneous): 5.14 ± 2.22 ×10^3 μl
- PMNs (×10^3 μl) Mean ± SD (male BALB/c mice; 0.66 μmol/kg subcutaneous): 5.03 ± 1.97 ×10^3 μl
- Lymphocytes (×10^3 μl) Mean ± SD (male BALB/c mice; 2 μmol/kg subcutaneous): 4.15 ± 1.97 ×10^3 μl
- PMNs (×10^3 μl) Mean ± SD (male BALB/c mice; 2 μmol/kg subcutaneous): 5.92 ± 1.73 ×10^3 μl
- Lymphocytes (×10^3 μl) Mean ± SD (male BALB/c mice; 6.66 μmol/kg subcutaneous): 3.74 ± 2.12 ×10^3 μl
- PMNs (×10^3 μl) Mean ± SD (male BALB/c mice; 6.66 μmol/kg subcutaneous): 7.11 ± 2.82 ×10^3 μl
- release of bone marrow PMNs (in words) (male BALB/c mice; systemic, subcutaneous injection): acted as a functional antagonist to elicit release of bone marrow PMNs in a dose responsive fashion

- bioavailability [2]: < 30%
- MRT inf [2]: 2.6 h
- Tmax [2]: 2 h
- half-life [2]: 1.5 h
Compound: CCCCCCCCCCCCCCCC(=O)N[C@@H](CCSC)C(=O)NCC(=O)N[C@@H](Cc1ccc(O)cc1)C(=O)N[C@@H](CCC(N)=O)C(=O)N[C@@H](CCCCN)C(=O)N[C@@H](CCCCN)C(=O)N[C@@H](CC(C)C)C(=O)N[C@@H](CCCNC(=N)N)C(=O)N[C@@H](CO)C(=O)N[C@@H](CCSC)C(=O)N[C@H](C(=O)N[C@@H](CC(=O)O)C(=O)N[C@@H](CCCCN)C(=O)N[C@@H](Cc1ccc(O)cc1)C(=O)N[C@@H](CCCNC(=N)N)C(=O)N[C@@H](CC(C)C)C(N)=O)[C@@H](C)O [Compound 48] (Palmitoyl-MGYQKKLRSMTDKYRL-NH2)

- Emax (CXCR4 [4]): 107%
Compound: CCCCCCCCCCCCCCCCS(=O)(=O)NCC(=O)NCC(=O)N[C@@H](Cc1ccc(O)cc1)C(=O)N[C@@H](CCC(N)=O)C(=O)N[C@@H](CCCCN)C(=O)N[C@@H](CCCCN)C(=O)N[C@@H](CC(C)C)C(=O)N[C@@H](CCCNC(=N)N)C(=O)N1CCC[C@@H]1C(=O)N[C@@H](Cc1c[nH]cn1)C(=O)N[C@H](C(=O)N[C@@H](CC(=O)O)C(=O)N[C@@H](CCCCN)C(=O)N[C@@H](Cc1ccc(O)cc1)C(=O)N[C@@H](CCCNC(=N)N)C(=O)N[C@@H](CC(C)C)C(N)=O)[C@@H](C)O [Compound 46, CH3(CH2)15SO2— GGYQKKLRpHTDKYRL-amide] (Hexadecanesulfonyl-GGYQKKLR[dP]HTDKYRL-NH2)
